# Source: patent publication US20070281935A1, “Use” (PFIZER INC., priority 2004, published 2007)
# Tests used:
# Assay type in all cases: in vivo
# cows [1] = experiment: Changes in blood non-esterified fatty acid (NEFA) concentrations in transition cows
# Experimental: (§1) To determine negative energy balance, serum concentrations of NEFAs or ketone bodies, or levels of triglycerides in liver tissues, are measured. Higher than ‘normal’ levels of NEFA's and/or triglycerides and/or ketone bodies are indicators of negative energy balance. Levels considered ‘higher than normal’ or ‘excessive’ are: • NEFA's >800 μmol/L in serum. • Triglycerides >10% w/w in liver tissue. • Ketone bodies […] in serum. Determination of Changes in Blood Non-Esterified Fatty Acid (NEFA) Concentrations and Liver Triglycerides Levels:
# (§2) Compounds were administered once or several times in the transition period at dose levels predicted to be effective by comparing results of in-vitro receptor affinity tests in laboratory species and pharmacokinetic evaluations in cattle. NEFA levels were determined via standard laboratory methods, for example, using the commercial WAKO NEFA kit (Wako Chemical Co., USA, Dallas, Tex., 994-75409), and liver triglyceride content was determined using the method as described in the literature (J. K. Drackley, J. J. Veenhuizen, M. J. Richard and J. W. Young, J Dairy Sci, 1991, 74, 4254)). […]
# (§3) As soon as possible post-calving (˜30 minutes) the cow was transferred to the freestall barn for the next scheduled milking (6:00 hrs and 19:00 hrs). […] Pre and post-calving NEFA samples were analyzed using the WAKO NEFA-C test kit (#994-75409). […]
# cows [2] = experiment: Liver triglyceride levels in transition cows (post-calving liver biopsies); settings: all treatment regimens (0.5 mg/kg); Days 5, 10 and 14 postcalving
# Experimental: as §1, §2, §3
# Holstein cows = experiment: Milk yield and milk quality study in pregnant, non-lactating Holstein cows; settings: approximately 0.5 mg/kg subcutaneous on day of calving and day five post-calving
# Experimental: Machines to assay for milk protein, fat, or lactose content are commercially available (MilkoScan™ 50, MilkoScan™ 4000, MilkoScan™ FT 6000 available from Foss Group). Machines to assay for somatic cell content are also commercially available (Fossomatic™ FC, Fossomatic™ Minor available from Foss Group).
# One hundred twenty four pregnant, non-lactating Holstein cows were allocated to two treatment groups (placebo and COMPOUND at approximately 0.5 mg/kg). Animals were allowed to calve, treated by subcutaneous injection on the day of calving and on day five post-calving. Disease events and daily milk production were recorded for the following sixty days. The average daily milk yield in the treated cows was increased from 41.8 to 43.2 kg/day (p=0.052). There was also a significant beneficial effect on milk quality (increased protein and lactose yield, decreased somatic cell count). Results are shown in the FIG. 3 and FIG. 4, where COMPOUND represents Compound Z.
# [3] = versus placebo, significant beneficial effect
smiles,measurement,setting,value
"CC(C)(Oc1cccc([C@@H]2CCCN(C(=O)OCc3ccc(C(F)(F)F)cc3)C2)c1)C(=O)O [Compound Z, (3S)-3-[3-(1-Carboxy-1-methyl-ethoxy)-phenyl]-piperidine-1-carboxylic acid 4-trifluoromethyl-benzyl ester]",serum NEFA levels as compared to controls,"cows [1]; all animals treated with Compound Z (T02, T03, T04; 0.5 mg/kg), from Day 1 (after calving) until Day 6 of the study",significantly lower
same,serum NEFA levels compared to controls,"cows [1]; treatment group T03 (0.5 mg/kg at calving and post partum eod 4 doses), all timepoints",significantly lower
same,liver triglyceride levels compared to placebo,cows [2],significantly lowered
same,average daily milk yield,"Holstein cows; sixty days recording, placebo 41.8, p=0.052",43.2 kg/day
same,milk quality: lactose yield,Holstein cows; [3],increased
same,milk quality: protein yield,Holstein cows; [3],increased
same,milk quality: somatic cell count,Holstein cows; [3],decreased
